Measurements from US20060069132A1, “Azolecarboxamide herbicides” (priority 2004, published 2006).

Legend:
lambsquarters = test: Test B pre-/postemergence herbicide test; type: in vivo, Chenopodium album; settings: for Lambsquarters plant response rating: postemergence
Method in brief: (§1)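 Pre: seeds sown, then sprayed. Post: 1–4-leaf plants (2–18 cm) sprayed at the same time. Paddy: flooded, treated at 2-leaf stage. Formulation: non-phytotoxic solvent with surfactant. Greenhouse 13–15 days; visual 0–100 score relative to controls.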

blackgrass = test: Test B postemergence herbicide test; type: in vivo, Alopecurus myosuroides; settings: postemergence
Method in brief: (§2)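 After treating 2-leaf paddy plants or 2–18 cm postemergence plants (1 to 4 leaves) with formulated chemical, researchers kept them in a greenhouse for 13–15 days. Effects were judged visually versus controls: 0 indicates none, 100 total control.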

rice [1] = test: Test B flooded paddy test; type: in vivo, Oryza sativa; settings: 1000 g ai/ha, scale 0 to 100 (0 no effect, 100 complete control)
Method in brief: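 Plants grow to 1- to 4-leaf stage (2–18 cm) for postemergence spraying, or to 2-leaf stage for the paddy test. Formulated compound is applied. Greenhouse holding lasts 13–15 days. Response is scored visually relative to controls, 0 no effect to 100 complete control; a dash means no result.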

rice [2] = test: Test C flooded paddy test; type: in vivo, Oryza sativa
Method: (§3) At the same time, plants selected from these crop and weed species and also winter barley (Hordeum vulgare L.), blackgrass (Alopecurus myosuroides Huds.), canarygrass (Phalaris minor Retz.), chickweed (Stellaria media (L.) Vill.), downy bromegrass (Bromus tectorum L.), green foxtail (Setaria viridis (L.) Beauv.), Italian ryegrass (Lolium multiflorum Lam.), wheat (Triticum aestivum L.), wild oat (Avenafatua L.) and windgrass (Apera spica-venti (L.) Beauv.) were treated with postemergence applications of some of the test chemicals formulated in the same manner. Plants ranged in height from 2 to 18 cm (1- to 4-leaf stage) for postemergence treatments. Plant species in the flooded paddy test consisted of rice (Oryza sativa), smallflower umbrella sedge (Cyperus difformis L.), ducksalad (Heteranthera limosa (Sw.) Willd.) and barnyardgrass (Echinochloa crus-galli (L.) Beauv.) grown to the 2-leaf stage for testing. Treated plants and controls were maintained in a greenhouse for 12 to 14 days, after which time all species were compared to controls and visually evaluated. Plant response ratings, summarized in Table C, are based on a scale of 0 to 100 where 0 is no effect and 100 is complete control. A dash (-) response means no test result.

cocklebur = test: Test B pre-/postemergence herbicide test; type: in vivo, Xanthium strumarium; settings: for Cocklebur plant response rating: postemergence
Method in brief: (§4)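 Flooded paddy rice and barnyardgrass were treated at the 2-leaf stage; upland plantings received compound either on sown seed or on 1- to 4-leaf seedlings. All were kept 13–15 days in a greenhouse and scored visually, 0–100, relative to untreated plants.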

large crabgrass = test: Test B pre-/postemergence herbicide test; type: in vivo, Digitaria sanguinalis; settings: for Crabgrass, Large plant response rating: postemergence
Method in brief: as §1

ducksalad [3] = test: Test C flooded paddy test; type: in vivo, Heteranthera limosa
Method: as §3

[4] = system: small flower umbrella sedge; test: Test B flooded paddy test; type: in vivo, Cyperus difformis; settings: 1000 g ai/ha, scale 0 to 100 (0 no effect, 100 complete control)
Method in brief: as §2

morningglory = test: Test B pre-/postemergence herbicide test; type: in vivo, Ipomoea coccinea; settings: for Morningglory plant response rating: postemergence
Method in brief: as §4

[5] = system: smallflower umbrella sedge; test: Test C flooded paddy test; type: in vivo, Cyperus difformis
Method: as §3

barnyardgrass [6] = test: Test B flooded paddy test; type: in vivo, Echinochloa crus-galli; settings: 1000 g ai/ha, scale 0 to 100 (0 no effect, 100 complete control)
Method in brief: as §2

barnyardgrass [7] = test: Test B pre-/postemergence herbicide test; type: in vivo, Echinochloa crus-galli; settings: for Barnyardgrass plant response rating: postemergence
Method in brief: as §4

corn = test: Test B pre-/postemergence herbicide test; type: in vivo, Zea mays; settings: for Corn plant response rating: postemergence
Method in brief: as §1

wheat = test: Test B postemergence herbicide test; type: in vivo, Triticum aestivum; set-up: key to Wheat plant response rating: 0 = no effect, 100 = complete control; settings: postemergence
Method in brief: as §2

pigweed = test: Test B pre-/postemergence herbicide test; type: in vivo, Amaranthus retroflexus; settings: for Pigweed plant response rating: postemergence
Method in brief: as §1

Surinam grass = test: Test B pre-/postemergence herbicide test; type: in vivo, Urochloa decumbens; settings: for Surinam Grass plant response rating: postemergence
Method in brief: as §1

velvetleaf = test: Test B pre-/postemergence herbicide test; type: in vivo, Abutilon theophrasti; settings: for Velvetleaf plant response rating: postemergence
Method in brief: as §1

ducksalad [8] = test: Test B flooded paddy test; type: in vivo, Heteranthera limosa; settings: 1000 g ai/ha, scale 0 to 100 (0 no effect, 100 complete control)
Method in brief: as §2

barnyardgrass [9] = test: Test C flooded paddy test; type: in vivo, Echinochloa crus-galli
Method: as §3

giant foxtail = test: Test B pre-/postemergence herbicide test; type: in vivo, Setaria faberi; settings: for Foxtail, Giant plant response rating: postemergence
Method in brief: as §1

wild oat = test: Test B postemergence herbicide test; type: in vivo, Avena fatua; settings: postemergence
Method in brief: as §2

[10] = 125 g ai/ha, 0 is no effect, 100 is complete control, preemergence
[11] = 125 g ai/ha, visual rating, scale 0 (no effect) to 100 (complete control)
[12] = 500 g ai/ha, visual rating, 0 = no effect, 100 = complete control, preemergence
[13] = 500 g ai/ha, scale 0 to 100, 0 is no effect, 100 is complete control
[14] = 125 g ai/ha, scale 0 to 100 (0 no effect, 100 complete control)
[15] = 250 g ai/ha, scale of 0 to 100, 0 is no effect, 100 is complete control
[16] = 500 g ai/ha, visual rating after 12 to 14 days, scale 0 to 100 (0 no effect, 100 complete control)

Cc1nn(C(C)(C)C)cc1C(=O)Nc1cc(C(=O)N(C)C)ccc1F [Compound 344]
Plant response rating (0 to 100 scale), Lambsquarters (lambsquarters; [10]): 90
Lambsquarters plant response rating (lambsquarters; [11]): 20
Plant response rating, Lambsquarters (lambsquarters; [12]): 100
Lambsquarters plant response rating (lambsquarters; [13]): 40
Blackgrass plant response rating (blackgrass; [11]): 0
Blackgrass plant response rating (blackgrass; [13]): 0
Rice plant response rating (rice [1]): 70
Rice plant response rating (rice [2]; 62 g ai/ha, scale 0 to 100): 0
Rice plant response rating (rice [2]; [14]): 0
Rice plant response rating (rice [2]; [15]): 0
Plant response rating, Rice (rice [2]; [16]): 15
Plant response rating (0 to 100 scale), Cocklebur (cocklebur; [10]): 20
Cocklebur plant response rating (cocklebur; [11]): 0
Plant response rating, Cocklebur (cocklebur; [12]): 70
Cocklebur plant response rating (cocklebur; [13]): 10
Plant response rating (0 to 100 scale), Crabgrass, Large (large crabgrass; [10]): 60
Crabgrass, Large plant response rating (large crabgrass; [11]): 0
Crabgrass, Large plant response rating (large crabgrass; [13]): 10
Ducksalad plant response rating (ducksalad [3]; 62 g ai/ha, scale 0 to 100): 0
Ducksalad plant response rating (ducksalad [3]; [14]): 0
Ducksalad plant response rating (ducksalad [3]; [15]): 20
Plant response rating, Ducksalad (ducksalad [3]; [16]): 45
Sedge, Umbrella plant response rating [4]: 80
Plant response rating (0 to 100 scale), Morningglory (morningglory; [10]): 10
Morningglory plant response rating (morningglory; [11]): 10
Plant response rating, Morningglory (morningglory; [12]): 80
Morningglory plant response rating (morningglory; [13]): 50
Sedge, Umbrella plant response rating ([5]; 62 g ai/ha, scale 0 to 100): 0
Sedge, Umbrella plant response rating [5, 14]: 75
Sedge, Umbrella plant response rating [5, 15]: 75
Plant response rating, Sedge, Umbrella [5, 16]: 85
Barnyardgrass plant response rating (barnyardgrass [6]): 60
Plant response rating (0 to 100 scale), Barnyardgrass (barnyardgrass [7]; [10]): 20
Barnyardgrass plant response rating (barnyardgrass [7]; [11]): 0
Plant response rating, Barnyardgrass (barnyardgrass [7]; [12]): 70
Barnyardgrass plant response rating (barnyardgrass [7]; [13]): 10
Plant response rating (0 to 100 scale), Corn (corn; [10]): 10
Corn plant response rating (corn; [11]): 10
Plant response rating, Corn (corn; [12]): 90
Corn plant response rating (corn; [13]): 10
Wheat plant response rating (wheat; [11]): 0
Wheat plant response rating (wheat; [13]): 10
Plant response rating (0 to 100 scale), Pigweed (pigweed; [10]): 90
Pigweed plant response rating (pigweed; [11]): 20
Plant response rating, Pigweed (pigweed; [12]): 90
Pigweed plant response rating (pigweed; [13]): 50
Plant response rating (0 to 100 scale), Surinam Grass (Surinam grass; [10]): 30
Surinam Grass plant response rating (Surinam grass; [11]): 0
Plant response rating, Surinam Grass (Surinam grass; [12]): 100
Surinam Grass plant response rating (Surinam grass; [13]): 10
Plant response rating (0 to 100 scale), Velvetleaf (velvetleaf; [10]): 40
Velvetleaf plant response rating (velvetleaf; [11]): 20
Velvetleaf plant response rating (velvetleaf; [13]): 30
Ducksalad plant response rating (ducksalad [8]): 80
Barnyardgrass plant response rating (barnyardgrass [9]; 62 g ai/ha, scale 0 to 100 (0 no effect, 100 complete control)): 0
Barnyardgrass plant response rating (barnyardgrass [9]; [14]): 0
Barnyardgrass plant response rating (barnyardgrass [9]; [15]): 0
Plant response rating, Barnyardgrass (barnyardgrass [9]; [16]): 0
Plant response rating (0 to 100 scale), Foxtail, Giant (giant foxtail; [10]): 10
Foxtail, Giant plant response rating (giant foxtail; [11]): 10
Plant response rating, Foxtail, Giant (giant foxtail; [12]): 60
Foxtail, Giant plant response rating (giant foxtail; [13]): 10
Oat, Wild plant response rating (wild oat; [11]): 0
Oat, Wild plant response rating (wild oat; [13]): 0
